For 14 compounds, inhibition results are on record in patent US20140155384A1, “COMPOUNDS AND METHODS OF TREATING DIABETES” (Medivation Technologies, Inc., priority 2011, published 2014).

One may read the inhibition as the drop in the measured response relative to a control, in per cent.

The target of experiment [1] is T1, human recombinant adrenergic α2B receptor (Homo sapiens, UniProt P18089).
T1 construct: expressed in transfected cells; host or cells: CHO-K1
T1 sequence (P18089 1-450): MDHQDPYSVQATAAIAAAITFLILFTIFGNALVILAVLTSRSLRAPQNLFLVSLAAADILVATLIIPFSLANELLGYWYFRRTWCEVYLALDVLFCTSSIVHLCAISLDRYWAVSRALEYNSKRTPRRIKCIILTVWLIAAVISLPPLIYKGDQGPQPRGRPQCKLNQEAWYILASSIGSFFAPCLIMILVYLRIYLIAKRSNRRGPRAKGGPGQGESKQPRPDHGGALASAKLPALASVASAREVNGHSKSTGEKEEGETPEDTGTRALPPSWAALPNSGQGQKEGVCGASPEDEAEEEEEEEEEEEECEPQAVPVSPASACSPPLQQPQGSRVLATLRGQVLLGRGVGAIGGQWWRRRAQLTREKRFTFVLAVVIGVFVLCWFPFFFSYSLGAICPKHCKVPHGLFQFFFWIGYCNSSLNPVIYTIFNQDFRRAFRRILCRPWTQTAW
The experiment is described as follows: Radioligand binding, adrenergic α2B receptor ([3H]Rauwolscine). Particulars: 0.1 μM compound, CHO-K1 cells, read-out: Percentage inhibition of ligand binding, Adrenergic α2B. A digest of the protocol: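 Percent inhibition of specific [3H]Rauwolscine (2.5 nM) binding, compounds at ≤1 μM, 1% DMSO vehicle, 10 μM prazosin defining nonspecific. Receptor: human α2B expressed in CHO-K1 cells, 60 min incubation at 25 °C in Tris-HCl pH 7.4 buffer (MgCl2, EDTA, BSA); filtered, washed, counted.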

The target of experiment [2] is T2, rat adrenergic α1B receptor (Rattus norvegicus, UniProt P15823).
T2 construct: rat adrenergic α1B receptor obtained from Wistar Rat liver; from tissue; host or cells: Wistar rat liver
T2 sequence (P15823 1-515): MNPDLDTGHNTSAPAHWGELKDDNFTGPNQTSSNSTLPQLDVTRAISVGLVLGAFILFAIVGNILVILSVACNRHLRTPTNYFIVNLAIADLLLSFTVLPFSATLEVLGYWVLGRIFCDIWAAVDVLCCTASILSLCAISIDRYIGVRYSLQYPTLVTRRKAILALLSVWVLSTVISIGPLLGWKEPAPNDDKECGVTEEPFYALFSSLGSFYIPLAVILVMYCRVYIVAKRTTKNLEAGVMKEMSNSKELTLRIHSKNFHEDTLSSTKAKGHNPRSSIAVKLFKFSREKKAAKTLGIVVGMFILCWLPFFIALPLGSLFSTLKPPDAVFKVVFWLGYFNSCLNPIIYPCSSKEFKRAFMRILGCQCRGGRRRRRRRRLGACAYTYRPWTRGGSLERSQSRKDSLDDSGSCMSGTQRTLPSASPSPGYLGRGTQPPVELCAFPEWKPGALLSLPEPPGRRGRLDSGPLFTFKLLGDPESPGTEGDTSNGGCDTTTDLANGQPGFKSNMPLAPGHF
The experiment is described as follows: Radioligand binding, adrenergic α1B receptor ([3H]Prazosin). Particulars: 0.1 μM compound, Wistar rat liver, read-out: Percentage inhibition of ligand binding, Adrenergic α1B. A digest of the protocol: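 Wistar rat liver α1B receptor preparation incubated with 0.25 nM [3H]prazosin and compound for 60 min at 25° C in 50 mM Tris-HCl pH 7.4, 0.5 mM EDTA; nonspecific binding defined with 10 μM phentolamine.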

The target in experiment [3] is T3, human recombinant adrenergic α1D receptor (Homo sapiens, UniProt P25100).
T3 construct: expressed in transfected cells; host or cells: HEK-293
T3 sequence (P25100 1-572): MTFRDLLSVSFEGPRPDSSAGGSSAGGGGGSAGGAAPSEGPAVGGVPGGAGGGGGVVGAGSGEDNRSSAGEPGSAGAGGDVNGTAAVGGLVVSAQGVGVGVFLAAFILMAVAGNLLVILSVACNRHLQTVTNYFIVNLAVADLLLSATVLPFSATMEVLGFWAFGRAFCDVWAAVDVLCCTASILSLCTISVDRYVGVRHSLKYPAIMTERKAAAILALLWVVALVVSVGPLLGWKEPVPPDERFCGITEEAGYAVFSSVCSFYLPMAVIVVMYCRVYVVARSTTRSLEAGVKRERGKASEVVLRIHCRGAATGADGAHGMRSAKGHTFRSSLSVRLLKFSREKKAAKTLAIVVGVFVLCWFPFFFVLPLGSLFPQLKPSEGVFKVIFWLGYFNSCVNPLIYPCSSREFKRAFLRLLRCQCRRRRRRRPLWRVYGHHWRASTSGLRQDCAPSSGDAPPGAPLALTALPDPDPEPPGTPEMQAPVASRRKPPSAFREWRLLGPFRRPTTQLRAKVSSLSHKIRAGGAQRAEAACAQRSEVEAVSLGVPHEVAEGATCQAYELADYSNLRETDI
Nature of the experiment: Radioligand binding, adrenergic α1D receptor ([3H]Prazosin). Particulars: 0.1 μM compound; HEK-293 cells; 0.6 nM [3H]Prazosin; read-out: Percentage inhibition of ligand binding, Adrenergic α1D. On the procedure:
Compounds were incubated with 0.6 nM [3H]Prazosin for 60 min at 25° C. Non-specific binding was estimated in the presence of 10 μM phentolamine. Receptor proteins were filtered and washed, the filters were then counted to determine [3H]Prazosin specifically bound. Compounds were screened at 1 μM or lower, using 1% DMSO as vehicle. Biochemical assay results are presented as the percent inhibition of specific binding in Table 2.

Experiment [4] concerns the target T4, human recombinant adrenergic α2A receptor (Homo sapiens, UniProt P08913).
T4 construct: expressed in transfected cells; host or cells: insect Sf9 cells
T4 sequence (P08913 1-465): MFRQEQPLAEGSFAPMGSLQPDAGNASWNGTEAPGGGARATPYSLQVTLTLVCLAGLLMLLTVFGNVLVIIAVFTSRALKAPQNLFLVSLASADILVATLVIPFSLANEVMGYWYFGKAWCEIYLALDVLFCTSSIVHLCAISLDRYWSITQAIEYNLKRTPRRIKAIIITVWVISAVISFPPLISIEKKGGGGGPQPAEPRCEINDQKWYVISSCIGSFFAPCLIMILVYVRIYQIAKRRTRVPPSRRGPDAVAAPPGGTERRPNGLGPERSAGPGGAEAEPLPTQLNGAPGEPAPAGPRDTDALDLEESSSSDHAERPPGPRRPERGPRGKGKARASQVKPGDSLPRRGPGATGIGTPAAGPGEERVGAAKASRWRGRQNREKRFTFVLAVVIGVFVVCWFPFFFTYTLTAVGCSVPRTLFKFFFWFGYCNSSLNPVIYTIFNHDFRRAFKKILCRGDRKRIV
Nature of the experiment: Radioligand binding, adrenergic α2A receptor ([3H]MK-912). Particulars: 0.1 μM compound; Sf9 cells; 1 nM [3H]MK-912; read-out: Percentage inhibition of ligand binding, Adrenergic α2A. A digest of the protocol: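 Percent inhibition of specific [3H]MK-912 (1 nM) binding measured by filtration counting, compounds tested at ≤1 μM in 1% DMSO. Receptor: human α2A from Sf9 cells; incubation 60 min, 25 °C, pH 7.4; 10 μM WB-4101 defined nonspecific binding.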

For `CC(=O)Nc1ccc(-c2ccc(-n3c4c(c5cc(C)ccc53)CN(C)CC4)nc2)cn1` [Compound No. 139, N-(6′-(2,8-dimethyl-3,4-dihydro-1H-pyrido[4,3-b]indol-5(2H)-yl)-3,3′-bipyridin-6-yl)acetamide], the inhibition at 0.1 µM in experiment [1] was found to be 59%; in experiment [2], 55%; in experiment [3], 45%; in experiment [4], 18%.

With `Cc1ccc2c(c1)c1c(n2-c2cccc(-c3ccc(S(C)(=O)=O)cc3)c2)CCN(C)C1` [Compound No. 131, 2,8-dimethyl-5-(4′-(methylsulfonyl)biphenyl-3-yl)-2,3,4,5-tetrahydro-1H-pyrido[4,3-b]indole], the inhibition at 0.1 µM came to 28% in experiment [1], 0% in experiment [2], 3% in experiment [3] and 75% in experiment [4].

As to `Cc1ccc2c(c1)c1c(n2-c2ccccc2-c2ccc(C)nc2)CCN(C)C1` [Compound 59, 2,8-dimethyl-5-(2-(6-methylpyridin-3-yl)phenyl)-2,3,4,5-tetrahydro-1H-pyrido[4,3-b]indole], the inhibition at 0.1 µM in experiment [1] is 91%; in experiment [2] it was 47%; in experiment [3] it was 65%; in experiment [4], 77%.

Take `Cc1ccc2c(c1)c1c(n2-c2cscc2-c2cnn(C)c2)CCN(C)C1` [Compound 30]: the inhibition at 0.1 µM in experiment [1] stood at 86%; in experiment [2] it was 32%; in experiment [3] it was 17%; in experiment [4], 42%.

For the compound `Cc1ccc2c(c1)c1c(n2-c2cccc(-c3cnc(N(C)C)nc3)c2)CCN(C)C1` [Compound 42, 5-(3-(2,8-dimethyl-3,4-dihydro-1H-pyrido[4,3-b]indol-5(2H)-yl)phenyl)-N,N-dimethylpyrimidin-2-amine], the inhibition at 0.1 µM in experiment [1] is 7%; in experiment [2], 10%; in experiment [3], -3%; in experiment [4], 17%.

For `Cc1ccc2c(c1)c1c(n2-c2ccc(-c3ccc4c(ccn4C)c3)cn2)CCN(C)C1` [Compound No. 136, 2,8-dimethyl-5-(5-(1-methyl-1H-indol-5-yl)pyridin-2-yl)-2,3,4,5-tetrahydro-1H-pyrido[4,3-b]indole], the inhibition at 0.1 µM in experiment [1] amounted to 105%; in experiment [2] it was 70%; in experiment [3] it was 59%; in experiment [4] it was 59%.

`Cc1ccc2c(c1)c1c(n2-c2ccccc2-c2cncc3ccccc23)CCN(C)C1` [Compound No. 87, 5-(2-(isoquinolin-4-yl)phenyl)-2,8-dimethyl-2,3,4,5-tetrahydro-1H-pyrido[4,3-b]indole]: the inhibition at 0.1 µM was determined as 18% in experiment [1], 13% in experiment [2], 16% in experiment [3] and 30% in experiment [4].

As to `Cc1cc(C)c2c(c1)c1c(n2-c2cccc(-c3ccncc3)c2)CCN(C)C1` [Compound 57, 2,6,8-trimethyl-5-(3-(pyridin-4-yl)phenyl)-2,3,4,5-tetrahydro-1H-pyrido[4,3-b]indole], the inhibition at 0.1 µM in experiment [1] was 11%; in experiment [2], 6%; in experiment [3], -1%; in experiment [4], 7%.

Consider `Cc1ccc2c(c1)c1c(n2-c2cccc(-c3ccc(C)s3)c2)CCN(C)C1` [Compound No. 64, 2,8-dimethyl-5-(3-(5-methylthiophen-2-yl)phenyl)-2,3,4,5-tetrahydro-1H-pyrido[4,3-b]indole], for which the inhibition at 0.1 µM is 1% in experiment [1], 10% in experiment [2], -1% in experiment [3] and 25% in experiment [4].

As for `Cc1ccc2c(c1)c1c(n2-c2cccc(-c3ccc4c(ccn4C)c3)c2)CCN(C)C1` [Compound 53, 2,8-dimethyl-5-(3-(1-methyl-1H-indol-5-yl)phenyl)-2,3,4,5-tetrahydro-1H-pyrido[4,3-b]indole], the inhibition at 0.1 µM in experiment [1] came out at 15%; in experiment [2], 8%; in experiment [3] it was 0%; in experiment [4], 24%.

Regarding `Cc1ccc2c(c1)c1c(n2-c2cccc3ccncc23)CCN(C)C1` [Compound 58, 5-(isoquinolin-8-yl)-2,8-dimethyl-2,3,4,5-tetrahydro-1H-pyrido[4,3-b]indole], the inhibition at 0.1 µM in experiment [1] was found to be 39%; in experiment [2], 22%; in experiment [3], 24%; in experiment [4], 22%.

As for `Cc1cc(C)c2c(c1)c1c(n2-c2ccc3ncccc3c2)CCN(C)C1` [Compound 48], the inhibition at 0.1 µM in experiment [1] was 16%; in experiment [2], 1%; in experiment [3], -5%; in experiment [4], 19%.

Turning to `CC(=O)Nc1ccc(-c2cscc2-n2c3c(c4cc(C)ccc42)CN(C)CC3)cn1` [Compound 56], the inhibition at 0.1 µM is 90% in experiment [1], 36% in experiment [2], 65% in experiment [3] and 4% in experiment [4].

Take `Cc1ccc2c(c1)c1c(n2-c2cccc(-c3cncc4ccccc34)c2)CCN(C)C1` [Compound No. 67, 5-(3-(isoquinolin-4-yl)phenyl)-2,8-dimethyl-2,3,4,5-tetrahydro-1H-pyrido[4,3-b]indole]: the inhibition at 0.1 µM in experiment [1] was 13%; in experiment [2], 2%; in experiment [3], -1%; in experiment [4] it was 39%.
